Consider two molecules from BindingDB's records for doi:10.1021/jm00063a011 (Kyowa Hakko Kogyo, 1993).

Test [1] can be described thus: Activity against TXA2 synthase in bovine platelet microsome.
The target of test [2] is Thromboxane-A synthase (Bos taurus). The test is described as above.

`O=C(O)c1ccc2c(c1)C(SCc1cccnc1)c1ccccc1CO2` (stereo not drawn) [11-(Pyridin-3-ylmethylsulfanyl)-6,11-dihydro-dibenzo[b,e]oxepine-2-carboxylic acid]: the IC50 in test [1] was 400 nM; in test [2] it was 4 nM.

As for `C/C(=C\c1ccc(Cc2cccnc2)cc1)C(=O)O` [Sodium; (E)-2-methyl-3-(4-pyridin-3-ylmethyl-phenyl)-acrylate], in test [2], the IC50 was found to be 4.3 nM.

The term IC50 denotes the concentration that inhibits the measured activity by half. Low readings indicate higher potency, high ones lower potency.
